Test results taken from patent US7192606B2, “Drugs for treating viral infections” (priority 2004, dated 2007).
Values after ≈ are worked out from the molar mass of the structure shown. Like-named read-outs stand apart in the source and are kept apart here.

Experiments:
cowpox virus [1] = test: microbe, parasite or virus in culture; assay type: cell-based; conditions: HFF
cowpox virus [2] = conditions: cited from earlier work
[3] = Neutral Red Uptake Assay (toxicity); conditions: human, stationary HFF cells
vaccinia virus = assay type: cell-based
cowpox virus [4] = assay type: cell-based
cowpox virus [5] = tested on: cowpox virus; design: species or system BALB/c mice; conditions: mouse, in vivo
stationary HFF cells = test: Neutral Red Uptake Assay (toxicity); conditions: Neutral Red Uptake
cowpox virus [6] = assay type: cell-based; remark: listed apart in the source
[7] = tested on: variola virus (smallpox) isolates; assay type: cell-based
Caco-2 cells = test: Caco-2 cell permeability assay; conditions: for A side % Remaining at 2 hrs: Caco-2, A side; for B side % Remaining at 2 hrs: Caco-2, B side; for A-B: Caco-2, apical to basolateral; for A-B / B-A: 25 microM, 2 hours, 37° C.; for B-A: Caco-2, basolateral to apical
[8] = Parallel Artificial Membrane Permeability Assay (PAMPA)-MS; conditions: hexadecane membrane layer, 4 hr, 50 microM in PBS, LC-MS
[9] = Caco-2 cell permeability assay; conditions: human, Caco-2

Compound: Nc1ccn(C[C@@H](CO)OCP(=O)(O)O)c(=O)n1 [CDV, reference compound]
- EC90 (cowpox virus [1]): 18.7 µg/mL (≈ 67 µM)
- active concentration in these cells (cowpox virus [2]): about 12.0 microgram/mL
- CC50 [3]: > 100 µg/mL

Compound: Sodium N,N^1-(Tricyclo[3.3.1.1^3,7]dec-1-yl)imidodisulfamide [Example 11]
- EC50 (vaccinia virus): EC50: 0.04 microgram/mL;
- EC90 (vaccinia virus): EC90: 0.11 microgram/mL;
- EC50 (cowpox virus [4]): EC50: 0.50 microgram/mL;
- EC90 (cowpox virus [4]): EC90: 2.10 microgram/mL;
- Lung titer on Day 3 (cowpox virus [5]): 6.6±1.3
- CC50 (stationary HFF cells): 87.6 microgram/mL

Compound: O=S(=O)(NC12CC3CC(CC(C3)C1)C2)NS(=O)(=O)NC12CC3CC(CC(C3)C1)C2 [Example 1, N,N^1-Bis(tricyclo[3.3.1.1^3,7]dec-1-yl)imidodisulfamide]
- plaques at 1.0 microgram/mL (cowpox virus [6]): tiny relative to the untreated ones
- plaques at 3.0 microgram/mL (cowpox virus [6]): nearly completely eliminated
- EC50 (cowpox virus [6]; 3 days): 2.0 microgram/mL
- average EC50 [7]: 0.10 microgram/mL
- concentration up to which cell monolayers were healthy (monkey (Vero) cells): ≥ 30 microgram/mL
- CC50 (uninfected cells): 43.0 microgram/mL
- A side % Remaining at 2 hrs (Caco-2 cells): 85.05%
- B side % Remaining at 2 hrs (Caco-2 cells): 105.39%
- Ratio (Caco-2 cells; Caco-2, B-A / A-B): 2.1
- A-B (Caco-2 cells): 9.07
- B-A (Caco-2 cells): 18.85
- CC50 (stationary HFF cells): 78.9 microgram/mL
- permeability [8]: 0.43 ×10⁻⁶ cm/s

Compound: CC(C)NCC(O)COc1cccc2ccccc12 (stereo not drawn) [Propranolol, reference compound]
- efflux ratio at 2 h, 25 microM [9]: 1.9
- A side % Remaining at 2 hrs (Caco-2 cells): 68.60%
- B side % Remaining at 2 hrs (Caco-2 cells): 88.38%
- A-B (Caco-2 cells): 39.03
- B-A (Caco-2 cells): 72.42
